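Tested at 5 concentrations; 48 h exposure; 96-well plates; endpoints linearly interpolated, else capped at highest concentration. At the GI50, growth is halved.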 The source made the active and inactive calls. Cut-off read from the data, not from the text of the source: active = GI50 up to about 1.1 µM and inactive = higher.
Assays:
Assay in all cases: NCI anticancer screen, dose series, 48 h
HOP-62 = tested on: HOP-62
SW-620 = tested on: SW-620
SNB-19 = tested on: SNB-19
COLO 205 = tested on: COLO 205
HCT-15 = tested on: HCT-15
OVCAR-4 = tested on: OVCAR-4
U-251 = tested on: U-251
786-0 = tested on: 786-0
MOLT-4 = tested on: MOLT-4
EKVX = tested on: EKVX
CCRF-CEM = tested on: CCRF-CEM
UACC-62 = tested on: UACC-62
DU-145 = tested on: DU-145
SK-MEL-2 = tested on: SK-MEL-2
IGROV-1 = tested on: IGROV-1
PC-3 = tested on: PC-3
OVCAR-5 = tested on: OVCAR-5
SNB-75 = tested on: SNB-75
SF-295 = tested on: SF-295
A498 = tested on: A498

Compound	GI50 (HOP-62)	GI50 (SW-620)	GI50 (SNB-19)	GI50 (COLO 205)	GI50 (HCT-15) [µM]	GI50 (OVCAR-4)	GI50 (U-251)	GI50 (786-0)	GI50 (MOLT-4)	GI50 (EKVX)	GI50 (CCRF-CEM)	GI50 (UACC-62)	GI50 (DU-145)	GI50 (SK-MEL-2)	GI50 (IGROV-1)	GI50 (PC-3)	GI50 (OVCAR-5)	GI50 (SNB-75)	GI50 (SF-295)	GI50 (A498)
Cc1ccc(-n2nnc(C#N)c2O)cc1	> 100 µM (inactive)	> 100 µM (inactive)	> 100 µM (inactive)	> 100 µM (inactive)	> 100	> 100 µM (inactive)	> 100 µM (inactive)	> 100 µM (inactive)	> 100 µM (inactive)	> 100 µM (inactive)	> 100 µM (inactive)	> 100 µM (inactive)	> 100 µM (inactive)	> 100 µM (inactive)	> 100 µM (inactive)	> 100 µM (inactive)	> 100 µM (inactive)	> 100 µM (inactive)	> 100 µM (inactive)	–
C[C@H](CO)C1=CC(C#C[Si](C)(C)C)N(C(=O)Oc2ccccc2)c2ccccc21 (stereo partly drawn)	6.05 µM (inactive)	12.4 µM (inactive)	15.8 µM (inactive)	5.6 µM (inactive)	3.06	7.1 µM (inactive)	14.6 µM (inactive)	14.2 µM (inactive)	9.12 µM (inactive)	13.3 µM (inactive)	10.9 µM (inactive)	5.3 µM (inactive)	16.9 µM (inactive)	13.4 µM (inactive)	12.4 µM (inactive)	10.2 µM (inactive)	15 µM (inactive)	6.5 µM (inactive)	3.86 µM (inactive)	–
CSC(SC)=C(C#N)C(=O)Nc1ccc(C)cc1	> 100 µM (inactive)	> 100 µM (inactive)	> 100 µM (inactive)	> 100 µM (inactive)	> 100	> 100 µM (inactive)	> 100 µM (inactive)	> 100 µM (inactive)	95.5 µM (inactive)	> 100 µM (inactive)	34.6 µM (inactive)	94.4 µM (inactive)	> 100 µM (inactive)	> 100 µM (inactive)	61.4 µM (inactive)	> 100 µM (inactive)	> 100 µM (inactive)	–	> 100 µM (inactive)	–
CNC(=O)N(CCC#N)CCCN(C(=O)NC)c1ccccc1	> 100 µM (inactive)	> 100 µM (inactive)	> 100 µM (inactive)	> 100 µM (inactive)	> 100	> 100 µM (inactive)	> 100 µM (inactive)	> 100 µM (inactive)	> 100 µM (inactive)	> 100 µM (inactive)	> 100 µM (inactive)	> 100 µM (inactive)	> 100 µM (inactive)	> 100 µM (inactive)	> 100 µM (inactive)	> 100 µM (inactive)	> 100 µM (inactive)	72.6 µM (inactive)	> 100 µM (inactive)	–
CC(=O)Nc1ccc(C(=O)NN2C(=O)CSC2c2ccccc2)cc1 (stereo not drawn)	> 100 µM (inactive)	> 100 µM (inactive)	> 100 µM (inactive)	> 100 µM (inactive)	> 100	> 100 µM (inactive)	> 100 µM (inactive)	> 100 µM (inactive)	> 100 µM (inactive)	> 100 µM (inactive)	> 100 µM (inactive)	> 100 µM (inactive)	> 100 µM (inactive)	69.5 µM (inactive)	> 100 µM (inactive)	–	> 100 µM (inactive)	90.8 µM (inactive)	> 100 µM (inactive)	> 100 µM (inactive)
O=C(NC(=S)Nc1ccc2c(c1)Sc1ccccc1O2)c1ccccc1	27.4 µM (inactive)	32.1 µM (inactive)	34 µM (inactive)	38.8 µM (inactive)	14	19.8 µM (inactive)	20.7 µM (inactive)	20.3 µM (inactive)	27.8 µM (inactive)	36.1 µM (inactive)	23 µM (inactive)	22.5 µM (inactive)	36.2 µM (inactive)	14.1 µM (inactive)	29.6 µM (inactive)	11.2 µM (inactive)	77.3 µM (inactive)	15.7 µM (inactive)	24.3 µM (inactive)	–
